# Measured values published in patent US20230357189A1, “MODIFIED FLUOROQUINOLONES AND USES THEREOF” (Technion Research & Development Foundation Limited, priority 2021, published 2023).
# Tests used:
# [1] = tested on: Staphylococcus Epidermidis; test: Antibacterial activity, MIC by double-microdilution method; type: cell-based; conditions: for MIC: Table 2, read-out: Gram-positive MIC c
# [2] = tested on: Bacillus Subtilis; test: as above; type: cell-based; conditions: Table 2, Bacillus Subtilis; for MIC: read-out: Gram-positive MIC d
# [3] = tested on: Escherichia coli 25922; test: as above; type: cell-based; conditions: Table 2, Escherichia coli 25922; for MIC: read-out: Gram-negative MIC b
# [4] = tested on: supercoiled (+) pHOT-1 plasmid DNA; test: DNA cleavage assay (gel electrophoresis); type: biochemical
# Protocol: Removal of Ligands Prior to Electrophoresis was performed when more than 100 μM of Cu(II)-ligand or Co(III) ligand (at any concentration) complexes were employed that is, for DNA cleavage assays that were performed in the absence of any adjuvants. An Amberlyst® 15 (Sigma Aldrich) ion-exchange resin was prepared according to the reported literature [Hettich et al. J. Am. Chem. Soc. 1997, 119 (24), 5638-5647] and stored at −20° C. Before use, 0.5 gram of the exchanger was mixed with 250 μL of water. After stopping the DNA-cleavage reaction by addition of EDTA (54 mM, 15 minutes incubation at 37° C.), 10 μL of the exchanger suspension was added, vortexed, and incubated at 37° C. for 15 minutes before centrifugation and electrophoresis.
# DNA cleavage activity of the tested Complexes towards supercoiled (+) pHOT-1 plasmid DNA (TopoGEN) was monitored by gel electrophoresis. In a typical experiment, plasmid DNA (200 ng, […]) in HEPES buffer (50 mM, pH 7.4) was mixed with different concentrations of a tested metal complex in the presence or absence of ascorbic acid (0.32 mM). All stock solutions of buffers and of the metal complexes were prepared using HPLC grade water (ChromAR®). Molecular biology reagent grade water (Sigma) was added up to a total reaction volume of 30 μL before incubation for a given time. For the ascorbic acid assays, the reaction was quenched immediately after incubation with EDTA (54 mM). For analysis, 10 μL of loading buffer (40% sucrose, 100 mM Tris-HCl (pH 7.5), 1 mM EDTA, 0.5 mg·mL^−1 bromophenol blue) was added to the incubated solution and loaded onto an agarose (SeaKem LE) gel [1% in TAE×1 buffer (40 mM Tris, 20 mM acetic acid, 1 mM EDTA)]. Electrophoresis was carried out at 60 V for 2 hours. Gels were stained with 1 μg·mL^−1 ethidium bromide for 30 minutes and de-stained in TAE×1 buffer. DNA bands were visualized with medium-range ultraviolet light using Bio-Rad Gel Doc XR+ imaging system. The quantity of different DNA forms (I or II) was estimated using ImageJ software.
# Chem. 2015, 2015 (28), 4722-4730; Kashiba-Iwatsuki et al. FEBS Lett. 1996, 389 (2), 149-15].
# The copper complex of compound 2 (2-Cu(II)) was used as the positive control in these assays.
# [5] = tested on: Escherichia coli R477-100; test: Antibacterial activity, MIC by double-microdilution method; type: cell-based; conditions: Table 2, Escherichia coli R477-100, without DTT; for MIC: R477100, read-out: Gram-negative MIC a
# [6] = tested on: supercoiled (+) pHOT-1 plasmid DNA; test: DNA cleavage assay (gel electrophoresis); type: biochemical; remark: listed apart in the source
# [7] = biological target: T1, E. coli DNA gyrase (Escherichia coli, UniProt P0AES4+P0AES6); test: E. coli Gyrase-DNA supercoiling assay; type: biochemical; conditions: supercoiling of relaxed pHOT-1 plasmid in presence of ATP; 37° C., 60 minutes
# T1 construct: purchased TopoGEN
# Protocol: The DNA supercoiling reactions were based on the manufacturer protocol (TopoGEN). The amount of DNA gyrase used in each assay was optimized by testing various dilutions of the stock. The amount sufficient to supercoil 250 nanograms (ng) of the substrate in 1 hour at 37° C. was then used for testing the compounds (1.1 U as defined by manufacturer). Assays (30 μL) contained 250 nanograms of relaxed pHOT1 plasmid DNA in Tris-HCl buffer (35 mM), pH 7.5, containing KCl (24 mM), MgCl2 (4 mM), DTT (2 mM), Spermidine (1.8 mM), ATP (1 mM), 6.5% (w/v) glycerol and bovine serum albumin (0.1 mg/ml). Reactions were incubated at 37° C. for 60 minutes. Reaction mixtures were stopped by the addition of 30 μL of loading buffer (40% sucrose, 100 mM Tris·HCl (pH 7.5), 1 mM EDTA, 0.5 mg×mL^−1 bromophenol blue) and worked up using 30 μL of 24:1 chloroform/isoamyl alcohol mixture; the aqueous layer was then analyzed using electrophoresis.
# Electrophoresis, gel staining, DNA visualization and DNA quantification were performed as described for the DNA cleavage assays.
# [8] = tested on: Gram-negative and Gram-positive bacteria; test: Comparative antibacterial activity, all tested bacteria; type: cell-based; conditions: MIC, Table 2 and 3
# Protocol: Comparative antibacterial activities were determined by measuring the MIC values by using the double-microdilution method according to the National Committee for Clinical Laboratory Standards (NCCLS). The Luria-Bertani growth medium and polypropylene 96-well plates (Thermo) were used unless otherwise stated. All the experiments were performed in triplicate, and analogous results were obtained in three different experiments.
# Compounds 1-6 and their Cu(II) and Co(III) complexes, as well as the pendant-bearing compounds 19-23 and 26 were tested for their comparative antibacterial activity by determining MIC values against two Gram-negative E. coli strains (AR477-100 and 25922) and two Gram-positive strains, Staphylococcus Epidermidis, and Bacillus Subtilis.
# T1 sequence (P0AES4 whole entry, one chain of several): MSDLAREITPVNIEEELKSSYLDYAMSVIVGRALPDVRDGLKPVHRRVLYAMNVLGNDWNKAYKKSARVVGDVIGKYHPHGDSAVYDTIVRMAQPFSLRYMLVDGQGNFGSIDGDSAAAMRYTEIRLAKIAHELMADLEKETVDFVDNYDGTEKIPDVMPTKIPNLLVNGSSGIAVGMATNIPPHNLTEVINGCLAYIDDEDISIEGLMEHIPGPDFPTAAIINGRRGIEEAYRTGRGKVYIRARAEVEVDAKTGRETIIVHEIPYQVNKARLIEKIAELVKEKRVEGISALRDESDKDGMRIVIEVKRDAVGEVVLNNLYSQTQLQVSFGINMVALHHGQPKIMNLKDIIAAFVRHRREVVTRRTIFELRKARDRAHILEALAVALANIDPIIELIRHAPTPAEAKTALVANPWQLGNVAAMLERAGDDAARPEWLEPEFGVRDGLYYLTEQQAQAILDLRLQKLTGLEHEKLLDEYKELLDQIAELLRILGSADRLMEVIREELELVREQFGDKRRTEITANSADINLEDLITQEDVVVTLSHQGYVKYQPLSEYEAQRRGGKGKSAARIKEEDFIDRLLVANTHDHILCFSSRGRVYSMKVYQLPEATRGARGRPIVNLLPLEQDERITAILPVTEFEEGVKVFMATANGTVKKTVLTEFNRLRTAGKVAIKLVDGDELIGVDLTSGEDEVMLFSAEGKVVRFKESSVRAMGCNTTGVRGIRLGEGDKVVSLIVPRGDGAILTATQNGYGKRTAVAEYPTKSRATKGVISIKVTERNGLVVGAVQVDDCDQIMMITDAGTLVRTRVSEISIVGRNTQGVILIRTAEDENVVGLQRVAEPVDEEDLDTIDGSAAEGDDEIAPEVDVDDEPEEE
SMILES,IC50 [7],MIC [1],MIC [2],MIC [3],antibacterial activity (in words) [8],MIC [5],also measured
O.O=C(O)c1cn(C2CC2)c2cc(N3CCN(Cc4ccc(CCN5CCNCCNCCNCC5)cc4)CC3)c(F)cc2c1=O.[Cu+2] [5-Cu(II)],180 ± 30 nM,,,,,,"Gram-positive MIC c ([1]; Table 2): 6 µg/mL; Gram-positive MIC d [2]: 3 µg/mL; Gram-negative MIC b [3]: 6 µg/mL; DNase activity (cleavage of supercoiled plasmid, form I to form II) ([4]; absence of adjuvants, HEPES buffer (50 mM, pH 7.4), 5 hours): significant cleavage enhancement even in relation to the activity of 1-Cu(II) and 4-Cu(II); effect of NaN3 on cleavage ([4]; ascorbic acid (0.32 mM), complex 0.01 mM, scavenger 10 mM, 2 hours): no inhibition whatsoever; effect of hydroxyl radical scavengers DMSO and t-BuOH on cleavage ([4]; no adjuvants, complex 0.5 mM, scavengers 10 mM, 5 hours): no significant inhibitory effect; Gram-negative MIC a [5]: 6 µg/mL; oxidative cleavage activity in Tris buffer with DTT ([6]; Tris-HCl buffer (35 mM, pH 7.5), DTT (2 mM), complex 0.5 mM, 2.5 hours): retain significant oxidative cleavage activity; hydrolytic DNA cleavage in presence of Tris-buffer or spermidine ([6]; complex 0.5 mM, 2.5 hours): inhibit the hydrolytic DNA cleavage of plasmid DNA"
"C1CNCCNCCNCCN1.O.[Co+3].[OH-] [Co(III)-cyclen, reference compound]",,,,,,,"DNase activity at micromolar concentrations ([4]; FIG. 32: 0.2 μg DNA over 2 hours (Co(III)-cyclen, 4-Co(III)), 0.6 μg DNA over 10 hours (23-Co(III))): inactive; effect of Co(III) complexes on plasmid DNA ([4]; absence of adjuvants, HEPES pH 7.4, 0.5 hours, micromolar concentrations): no effect whatsoever; DNase activity in TRIS buffer with ATP ([6]; 50 mM TRIS buffer, 1.8 mM ATP): not inhibited by ATP; DNase activity in TRIS buffer with glutamate ([6]; 50 mM TRIS buffer, 100 mM potassium glutamate): very strongly inhibited by glutamate"
O=C(O)c1cn(C2CC2)c2cc(N3CCN(Cc4ccc(CCN5CCNCCNCCNCC5)cc4)CC3)c(F)cc2c1=O [Compound 5],150 ± 40 nM,3 µg/mL,3 µg/mL,3 µg/mL,slightly higher activity,6 µg/mL,
O=C(O)c1cn(C2CC2)c2cc(N3CCN(Cc4ccc(CCCN5CCNCCNCCNCC5)cc4)CC3)c(F)cc2c1=O [Compound 6],70 ± 20 nM,1.5 µg/mL,3 µg/mL,1.5 µg/mL,slightly higher activity,3 µg/mL,
